Reference: US6387922B2, “Annulated azole derivatives useful as microbicidal agents” (Bayer Aktiengesellschaft, priority 1997, dated 2002)

Tests used:
[1] = system: Plasmopara viticola; assay: Plasmopara Test (grapevine)/protective; type: in vivo; settings: grapevine young plants, protective spray, application rate 100 g/ha, evaluation 6 days after inoculation; 0% = as control, 100% = no infection
Experimental: Plasmopara Test (grapevine)/protective
(§1) Solvent: 47 parts by weight of acetone
(§2) Emulsifier: 3 parts by weight of alkyl-aryl polyglycol ether
To produce a suitable preparation of the active compound, 1 part by weight of active compound is mixed with the stated amounts of solvent and emulsifier, and the concentrate is diluted with water to the desired concentration.
To test for protective activity, young plants are sprayed with a preparation of active compound at the stated application rate. After the spray coating has dried on, the plants are inoculated with an aqueous spore suspension of Plasmopara viticola and then remain in an incubation cabin at approximately 20° C. and 100% relative atmospheric humidity for 1 day. The plants are then placed in a greenhouse at approximately 21° C. and approximately 90% atmospheric humidity for 5 days. The plants are then moistened and placed in an incubation cabin for 1 day.
Evaluation is carried out 6 days after the inoculation. 0% means an efficacy which corresponds to that of the control, whereas an efficacy of 100% means that no infection is observed.

[2] = system: Venturia inaequalis; assay: Venturia Test (Apple)/protective; type: in vivo; settings: apple young plants, protective spray, application rate 100 g/ha, evaluation 12 days after inoculation; 0% = as control, 100% = no infection
Experimental: Venturia Test (Apple)/protective
as §1, §2
To produce a suitable preparation of active compound, 1 part by weight of active compound is mixed with the stated amounts of solvent and emulsifier, and the concentrate is diluted with water to the desired concentration.
To test for protective activity, young plants are sprayed with the preparation of active compound at the stated application rate. After the spray coating has dried on, the plants are inoculated with an aqueous conidia suspension of the causative organism of apple scab Venturia inaequalis and then remain in an incubation cabin at approximately 20° C. and 100% relative atmospheric humidity for 1 day.
The plants are then placed in a greenhouse at approximately 21° C. and a relative atmospheric humidity of approximately 90%.
Evaluation is carried out 12 days after the inoculation. 0% means an efficacy which corresponds to that of the control, whereas an efficacy of 100% means that no infection is observed.

melting point	SMILES	Efficacy in % [1]	Efficacy in % [2]
130 to 135 °C	Cc1noc(C)c1S(=O)(=O)n1cnc2cnccc21 [Example 2, 1-(3,5-dimethyl-isoxazole-4-sulphonyl)-1H-imidazo[4,5-c]pyridine]	90%	95%
	Cc1noc(C)c1S(=O)(=O)n1nnc2ccccc21 [1-(3,5-dimethyl-isoxazol-4-sulphonyl)-1H-benzotriazole, reference compound]	49%	0%
